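A five-concentration, 48-hour dose response in 96-well plates underlies each endpoint, interpolated linearly between surrounding concentrations. The concentration for full growth arrest is given as TGI.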
Legend:
Assay in all cases: NCI-60 cell line screen, 48 h
[1] = system: ACHN renal
[2] = system: HT29 colon
[3] = system: U251 CNS
[4] = system: TK-10 renal
[5] = system: UO-31 renal
[6] = system: LOX IMVI melanoma
[7] = system: SW-620 colon
[8] = system: BT-549 breast
[9] = system: OVCAR-4 ovarian
[10] = system: UACC-62 melanoma
[11] = system: SNB-75 CNS
[12] = system: HOP-92 NSCLC
[13] = system: SF-295 CNS
[14] = system: MDA-MB-231 breast
[15] = system: HCT-15 colon
[16] = system: T-47D breast
[17] = system: NCI-H522 lung
[18] = system: M14 melanoma
[19] = system: A498 renal
[20] = system: OVCAR-3 ovarian

Row | Structure (SMILES) | TGI [1] [µM] | TGI [2] [µM] | TGI [3] [µM] | TGI [4] [µM] | TGI [5] [µM] | TGI [6] [µM] | TGI [7] [µM] | TGI [8] [µM] | TGI [9] [µM] | TGI [10] [µM] | TGI [11] [µM] | TGI [12] [µM] | TGI [13] [µM] | TGI [14] [µM] | TGI [15] [µM] | TGI [16] [µM] | TGI [17] [µM] | TGI [18] [µM] | TGI [19] [µM] | TGI [20] [µM]
1 | COC(=O)c1cn(CCCCO)nn1 | > 100 | > 100 | > 100 | > 100 | > 100 | > 100 | > 100 | > 100 | > 100 | > 100 | > 100 | > 100 | > 100 | > 100 | > 100 | > 100 | – | – | – | –
2 | CCN(CC)c1nc(=O)c(C(=O)C(C)(C)C)c(C(C)(C)C)o1 | > 100 | > 100 | > 100 | > 100 | – | > 100 | > 100 | > 100 | > 100 | > 100 | > 100 | > 100 | > 100 | > 100 | > 100 | > 100 | > 100 | > 100 | > 100 | –
3 | Cc1cccc(Nc2nc(NNC(=O)Cc3ccccc3)nc(NNC(=O)c3ccncc3)n2)c1 | > 10 | > 10 | – | > 10 | > 10 | > 10 | > 10 | > 10 | > 10 | > 10 | > 10 | > 10 | > 10 | > 10 | > 10 | > 10 | > 10 | > 10 | – | –
4 | O=C(Nc1ccc(N2C(=O)CSC2c2cccs2)cc1)c1ccc(N2C(=O)CSC2c2cccs2)cc1 (centres undefined) | > 100 | > 100 | > 100 | > 100 | > 100 | > 100 | > 100 | > 100 | > 100 | > 100 | > 100 | > 100 | > 100 | > 100 | > 100 | > 100 | > 100 | > 100 | – | > 100
5 | O=C(Nn1c(-c2ccccc2)nc2ccccc2c1=O)c1ccc(O)cc1 | > 100 | > 100 | > 100 | > 100 | > 100 | – | > 100 | > 100 | > 100 | > 100 | > 100 | > 100 | > 100 | > 100 | > 100 | > 100 | > 100 | > 100 | > 100 | > 100
6 | COC(=O)CCSC1=CC(=O)c2nc3ccccc3c3ccnc1c23 | 48.3 | 34.1 | > 100 | 18.9 | 31.7 | – | > 53.1 | 33 | 41.9 | 21.7 | > 100 | > 55.4 | > 100 | > 70.7 | 27.9 | 44.1 | 3.74 | 47.2 | > 100 | 11.4
7 | Cc1ccc(C2SC(N)=Nc3c2c(C)nn3C(=O)c2ccc(Cl)cc2)cc1 (centres undefined) | > 10 | > 10 | > 10 | > 10 | – | > 10 | > 10 | > 10 | > 10 | > 10 | > 10 | > 10 | > 10 | > 10 | > 10 | > 10 | > 10 | > 10 | – | > 10
8 | C=CCOCn1ccc(NC(=O)c2ccccc2)nc1=O | > 100 | > 100 | – | > 100 | > 100 | > 100 | > 100 | > 100 | – | > 100 | > 100 | – | > 100 | > 100 | > 100 | > 100 | > 100 | > 100 | > 100 | –
9 | COC(=O)C1=C(OC(=O)/C(=C/c2c(F)cccc2F)c2ccccc2)C(C(=O)OC)[C@@]2(O)[C@@H](C(=O)OC)[C@H](C)C[C@@H]1[C@@H]2C(=O)OC (some centres undefined) | > 100 | > 100 | > 100 | > 100 | 8.26 | > 100 | > 100 | > 100 | > 100 | > 100 | > 100 | – | > 100 | > 100 | > 100 | > 100 | > 100 | > 100 | – | > 100
10 | C=CCN1C[C@@H](C)N([C@@H](c2ccccc2)c2ccc(C(=O)N(CC)CC)cc2)C[C@@H]1C | > 100 | > 100 | > 100 | – | > 100 | – | > 100 | > 100 | > 100 | > 100 | – | 89 | > 100 | > 100 | > 100 | > 100 | > 100 | > 100 | > 100 | > 100
11 | O=C1C(Cl)C(c2cccc(Br)c2)N1c1c(O)c(Cl)cc(Br)c1Cl (centres undefined) | 37.6 | 23 | 25.3 | 51.4 | 40 | 28.5 | 41.4 | > 100 | 24.7 | 33.8 | – | 29 | 31.1 | 46 | 19.3 | 44.6 | 30 | 27.1 | – | 36.1
12 | CC1=C(c2ccc(C)cc2)NC(=S)C(C)C(c2ccc(C)cc2)=N1 (centres undefined) | > 100 | > 100 | > 100 | > 100 | > 100 | > 100 | > 100 | > 100 | > 100 | > 100 | > 100 | – | > 100 | > 100 | > 100 | > 100 | – | – | > 100 | –
13 | CCCCCCCCCCCCCCCCNc1ccc2c(c1)OCCOCCOCCOCCO2 | – | 10.9 | 10.4 | 25.7 | 8.88 | 5.42 | 13.3 | 11.6 | 17.6 | 11.1 | 11.9 | 5.99 | 7.94 | 11.9 | 13.5 | 9.2 | 8.68 | 13.5 | – | 8.75
14 | COCN1C(=O)[C@@H]2CCCN2C(=O)c2cc(Cl)ccc21 | > 100 | > 100 | > 100 | > 100 | > 100 | > 100 | > 100 | > 100 | > 100 | > 100 | > 100 | > 100 | > 100 | > 100 | > 100 | > 100 | > 100 | > 100 | > 100 | –
15 | Cc1ccc(-c2n[nH]c(=O)n2N2C(=O)C=CC2=O)cc1 | – | > 100 | > 100 | > 100 | – | – | – | > 100 | > 100 | > 100 | – | – | > 100 | > 100 | > 100 | > 100 | > 100 | > 100 | > 100 | > 100
16 | COc1cc(/C=C2/C(=O)N=C(NC(C)=O)N2C)ccc1OC(C)=O | > 100 | > 100 | > 100 | > 100 | > 100 | > 100 | > 100 | > 100 | > 100 | > 100 | > 100 | > 100 | > 100 | > 100 | > 100 | > 100 | – | > 100 | – | > 100
17 | CC(C(=O)N1C(=O)N(C(=O)[C@H](C)C(O)c2ccccc2)[C@H](c2ccccc2)[C@H]1c1ccccc1)[C@@H](O)c1ccccc1 (some centres undefined) | > 100 | > 100 | > 100 | > 100 | > 100 | – | > 100 | 71 | > 100 | 51.1 | > 100 | 83.3 | > 100 | 48.9 | > 100 | > 100 | > 100 | 61.7 | > 100 | –
18 | O=C1C=C(NCCc2cc(Cl)c(O)c(Cl)c2)C(=O)c2[nH]cnc21 | > 100 | > 100 | > 100 | > 100 | > 100 | > 100 | > 100 | > 100 | – | 41.1 | – | – | 45.6 | > 100 | > 100 | 53.2 | 31.4 | 26.7 | > 100 | 47.2
19 | C=CCN(c1cc(OCc2ccccc2)c2c(c1)c(C)cn2S(=O)(=O)c1ccccc1)S(C)(=O)=O | > 100 | > 100 | > 100 | > 100 | – | > 100 | > 100 | > 100 | > 100 | > 100 | > 100 | > 100 | > 100 | > 100 | > 100 | > 100 | > 100 | > 100 | – | > 100
20 | CC(C)N(C(=O)c1ccc(NCc2cc(O)ccc2O)cc1)C(C)C | 26.7 | 35 | 32.6 | 29.5 | 21.3 | 30.4 | 82 | 30.7 | 28.3 | 28.9 | > 100 | 24.9 | 46 | 32 | 33.6 | 40.7 | – | 35.7 | 62.2 | 25.1
21 | Cc1cn(CCCCOC(=O)NC(CCCNC(N)=O)C(=O)O)c(=O)[nH]c1=O (centres undefined) | > 100 | > 100 | > 100 | > 100 | > 100 | > 100 | > 100 | > 100 | > 100 | > 100 | > 100 | > 100 | > 100 | > 100 | > 100 | > 100 | – | > 100 | – | > 100
22 | O=C1CCCCCCCCCCC1CN(Cc1ccccc1)Cc1ccccc1 (centres undefined) | > 100 | – | 49.6 | > 100 | > 100 | 69.4 | > 100 | > 100 | > 100 | 36.1 | – | > 100 | > 100 | > 100 | > 100 | 63.9 | > 100 | > 100 | – | > 100
23 | CN(C)C(=O)C(F)(F)C(c1ccc(C(F)(F)F)cc1)C1C(=O)N(C)C(=O)N(C)C1=O (centres undefined) | > 100 | – | > 100 | > 100 | > 100 | > 100 | > 100 | > 100 | > 100 | > 100 | > 100 | > 100 | > 100 | > 100 | > 100 | > 100 | – | > 100 | > 100 | > 100
24 | COC(=O)C(CCSc1ccccc1)C(=O)OC | > 100 | > 100 | > 100 | – | > 100 | – | > 100 | > 100 | > 100 | > 100 | > 100 | > 100 | > 100 | > 100 | > 100 | > 100 | > 100 | > 100 | > 100 | > 100
25 | COc1cc2c(cc1OC)CN1CCc3ccccc3CC1C2 (centres undefined) | > 100 | > 100 | > 100 | 64.3 | > 100 | > 100 | > 100 | > 100 | 98.2 | > 100 | > 100 | > 100 | > 100 | > 100 | > 100 | 75.6 | – | > 100 | > 100 | > 100
26 | N#Cc1c(-c2ccccc2)c(C#N)c(=S)n(C2OCC(O)C(O)C2O)c1N (centres undefined) | > 100 | > 100 | – | > 100 | > 100 | > 100 | > 100 | > 100 | – | > 100 | > 100 | – | > 100 | > 100 | > 100 | > 100 | > 100 | > 100 | > 100 | > 100

From PubChem BioAssay (NCI)
